Results: patent publication US7291347B2, “Succinate salt of O-desmethyl-venlafaxine” (Wyeth, priority 2001, dated 2007)
pIC50: −log10 of the molar value.

Assays:
[1] = Stability in perfusion buffer and jejunal fluids; assay type: in vitro ADME, rat; details: pH 6.8, 37° C., up to 6 hours
Description: The stability of ODV succinate or fumarate in the solutions of blank perfusion buffer (Pβ), and jejunal fluids (perfusion buffer collected by washing the isolated jejunal segment, pH=6.8) was determined at 37° C. for up to 6 hours.

[2] = In situ rat intestinal perfusion (site-specific absorption); assay type: in vivo; details: for Peff Meloprolol: 20 μg/mL
Source text: The rat intestine perfusion technique is a direct way to measure the regional absorption properties of a test compound in the gastrointestinal tract. Rat intestinal permeability coefficient (Peff) can be used to predict human in vivo oral absorption of passively absorbed compounds. Fagerholm, M. Johansson, and […], “Comparison between permeability coefficients in rat and human jejunum”, Pharm. […] Meanwhile, some other characteristics such as formulable Maximum Absorbable Dose (MAD), FDA Biopharmaceutical Classification, etc. can also be estimated. […] Rats used in this study were Charles River CD males, ranging in weight from approximately 300-350 grams. Metoprolol (a well-absorbed and passively transported compound) was used as a standard and tested simultaneously along with the ODV compounds. […] All chemicals were of analytical grade. After each experiment, all the analytic assays were performed promptly. For isotope determinations, 0.5 mL of perfusate sample containing ^14C PEG-4000 and ^3H-mannitol was mixed with 5 mL of scintillation cocktail. Radioactivity was counted in a liquid scintillation counter (Wallac 1409). Glucose concentration was determined by the glucose oxidase method (Biochemistry Analyzer). Metoprolol and the ODV compounds were analyzed by HPLC-UV/Vis (HP-1100 with a diode-array detector), using a YMC AQ 120 μ, 5 μ, 150×4.6 mm column and step gradient mobile phase containing water/0.1% TFA and acetonitrile. The ODV compounds and metoroplol were detected at 226 and 272 nm UV wavelength, respectively. Blank perfusate was assayed to evaluate the interference at these chromatographic conditions. The perfusions were performed in three intestinal sections of anesthetized rats: duodenum-jejunum, ileum, and colon. The lengths of the segments were approximately 10-12 cm for small intestine segments and 5-6 cm for colon segments. An inflow cannula was inserted at the proximal end and an outflow cannula was inserted at the distal end. Perfusate was pumped through the segment at 0.19 mL/min, and collected at 20, 40, 55, 70, 85 and 100 minutes. […] The disappearance rates of ODV compound, metoprolol, and glucose were determined from each collection interval by comparing to the initial compound solution remaining in the syringe at the end of the 100 minutes. This is to correct for any losses due to binding to the syringe or tubing. Meanwhile, drug concentration in perfusate samples were corrected for water influx/efflux, which was computed, based on ^14C-PEG-4000 concentration changes. […] Values below this range would indicate tissue damage that allows passage of PEG-4000 outside of the perfused segment, while values above this range would indicate significant water movement out of the segment. Water movement across the gut wall was determined by calculation of net water fluid: Net Water Flux (NWF)=[(1-[…] where PEGout and PEGin are the amount of radioactivity (dpm) of ^14C-PEG-4000 in inlet and outlet sides of the perfused intestinal segment, respectively; Q is the flow rate of perfusate; and L is the length of perfused segment (cm). The presence of the ODV compound in the perfusate was determined by HPLC. The amount of drug present at each time point was corrected for water movement across the wall of the intestine: Cout,[…]) where Cout is the concentration of drug in outlet perfusate; Cout,corr is the concentration of drug in outlet perfusate corrected for water moving in or out of the segment, as determined by the recovery of ^14C-PEG-4000. Effective intestinal permcability, Peff (cm/sec), was determined by the following equation: […] Cin is the concentration of drug in inlet perfusate; 2 μrL is the inner surface area of the perfused segment, with r assumed to be 0.18 cm in the rat (see G. Amidon, […]. Crison. “A theoretical basis for a biopharmaceutic drug classification: The correlation of in vitro drug product dissolution and in vivo bioavailability.” Pharm. Res. 12, 1995, 413-420) and L the length of the perfused segment (cm). […]

[3] = test system: Reserpine-Induce Hypothermia; details: i.p.; cited from earlier work
[4] = test system: Norepinephrine reuptake; details: in vitro; read-out: Inhibition of amine reuptake (IC50), Norepinephrine; cited from earlier work
[5] = test system: Serotonin reuptake; details: in vitro; read-out: Inhibition of amine reuptake (IC50), Serotonin; cited from earlier work
[6] = test system: Dopamine reuptake; details: in vitro; read-out: Inhibition of amine reuptake (IC50), Dopamine; cited from earlier work
[7] = test system: Cholinergic; details: at 1 uM; cited from earlier work
[8] = test system: Adrenergic α; details: at 1 uM; cited from earlier work
[9] = test system: Opiate; details: at 1 uM; cited from earlier work
[10] = Aqueous solubility (UV spectrophotometry); assay type: physicochemical; details: water, thermodynamic from solid; at 25° C.
Description: The aqueous solubility (reported above) of Form I of ODV succinate was determined according to the following procedure. Materials • Spectrophotometer—Capable of isolating a bandwidth of 2 nm or less at the wavelength of maximum absorbance, and of measuring absorbances in the 0.0 to 1.0 range with a precision of 0.01. A Cary Model 219 spectrophotometer or equivalent is suitable. • Cells—Silica, 1 cm. • Filters—0.45 micron Nylon filters which are chemical resistant or equivalent • Bottles—Glass screw top bottles having a 15 mL or greater capacity. • Shaker—A lateral shaker, wrist shaker, or a vibrator which will not generate heat is suitable. A. For Non UV Absorbing Solvents • 1. To a bottle weigh an amount of sample equivalent to approximately 1½ times the solubility. • 2. […] Agitate the bottles at ambient room temperature for at least 16 hours. • 4. Obtain a clear filtrate layer by either centrifugation of filtration being careful to avoid evaporation. • 5. Quantitatively transfer the solution to a volumetric flask and dilute to volume with water. • 6. Blank the instrument for water. • 7. Make quantitative dilutions to arrive at a suitable concentration for measurement. […] Quantitatively transfer to a volumetric flask with the same solvent used in preparing the standard solution. • 6. Make dilutions as necessary to obtain a concentration suitable for quantitative measurement. […]

[11] = Physical stability of the crystalline form; assay type: physicochemical

SMILES: CN(C)CC(c1ccc(O)cc1)C1(O)CCCCC1.O=C(O)/C=C/C(=O)O (stereo not drawn) [ODV fumarate, reference compound]
- stability in blank perfusion buffer and jejunal fluids [1]: no apparent degradation/metabolism
- MAD predicted ([2]; rat, in vivo): about 440 mg
- Peff as percentage of the succinate's Peff values ([2]; rat, in vivo): 27μ40
- Peff values ([2]; rat, in vivo): 0.24-0.68 ×10^−5 cm/sec
- in vivo Fa estimated ([2]; rat, in vivo): 33-45%

SMILES: COCCc1ccc(OCC(O)CNC(C)C)cc1 (stereo not drawn) [Meloprolol, Metoprolol, reference compound]
- Peff Meloprolol ([2]; Colon, perfused together with ODV fumarate): 11 10^−5 cm/sec
- Peff Meloprolol ([2]; Colon, perfused together with ODV succinate): 0.583 ± 0.087 10^−5 cm/sec
- Peff Meloprolol ([2]; Ileum, perfused together with ODV fumarate): 53 10^−5 cm/sec
- Peff Meloprolol ([2]; Ileum, perfused together with ODV succinate): 3.22 ± 0.07 10^−5 cm/sec
- Peff Meloprolol ([2]; Jejunum, perfused together with ODV fumarate): 1.78 ± 0.93 10^−5 cm/sec
- Peff Meloprolol ([2]; Jejunum, perfused together with ODV succinate): 2.50 ± 0.11 10^−5 cm/sec

SMILES: CN(C)CC(c1ccc(O)cc1)C1(O)CCCCC1 (stereo not drawn) [O-desmethylvenlafaxine, 1-[2-(dimethylamino)-1-(4-phenol)ethyl]-cyclohexanol]
- Reversal of Reserpine-Induce Hypothermia (minimum effect) [3]: 3 mg/kg
- pIC50 [4]: 5.94
- pIC50 [5]: 6.74
- pIC50 [6]: 4.87
- Affinity for Various Neuroreceptors (% inhibition), Cholinergic [7]: 7%
- Affinity for Various Neuroreceptors (% inhibition), Adrenergic α [8]: 0%
- Affinity for Various Neuroreceptors (% inhibition), Opiate [9]: 7%

SMILES: CN(C)CC(c1ccc(O)cc1)C1(O)CCCCC1.O=C(O)CCC(=O)O (stereo not drawn) [Form I, O-des-methyl-Venlafaxine succinate monohydrate]
- solubility [10]: 32.2 mg/mL
- physically stable at relative humidity [11]: 5-95%
- physically stable up to (temperature) [11]: at least 105 °C
